Data from patent US7902354B2, “Lapachone compounds and methods of use thereof” (ArQule, Inc., priority 2006, dated 2011).
Each block holds one molecule with its values, some of them ahead of it.

Key:
[1] = test system: A549 human lung carcinoma cells; test: MTS cell viability assay, A549 human lung carcinoma cells; type: cell-based; settings: A549, 4 h compound incubation, MTS, read-out: IC50 Values, Cancerous Cells, Lung A549
[2] = test system: DLD-1 human colon carcinoma cells; test: MTS cell viability assay, DLD-1 human colon carcinoma cells; type: cell-based; settings: DLD-1, 4 h compound incubation, MTS, read-out: IC50 Values, Cancerous Cells, Colon DLD-1
[3] = test system: DU-145 human prostate carcinoma cells; test: MTS cell viability assay, DU-145 human prostate carcinoma cells; type: cell-based; settings: DU-145, 4 h compound incubation, MTS, read-out: IC50 Values, Cancerous Cells, Prostate DU-145
[4] = test system: K-562 human leukemia cells; test: MTS cell viability assay, K-562 human leukemia cells; type: cell-based; settings: K562, K-562, 4 h compound incubation, MTS, read-out: IC50 Values, Cancerous Cells, Leukemia K-562
[5] = test system: HT-29 human colon carcinoma cells; test: MTS cell viability assay, HT-29 human colon carcinoma cells; type: cell-based; settings: 4 h compound incubation, read-out: IC50 Values, Cancerous Cells, Colon HT-29
[6] = test system: PACA-2 human pancreatic carcinoma cells; test: MTS cell viability assay, PACA-2 human pancreatic carcinoma cells; type: cell-based; settings: PACA-2, 4 h compound incubation, MTS, read-out: IC50 Values, Cancerous Cells, Pancreas PACA-2
[7] = test system: NCM-460 normal colon epithelial cells; test: MTS cell viability assay, NCM-460 normal colon epithelial cells; type: cell-based; settings: for IC50: Homo sapiens, NCM460, NCM-460, 4 h compound incubation, MTS, read-out: IC50 Values, Normal Cells, Colon NCM-460; for Fold Selectivity (NCM-460/DLD1): ratio of IC50 NCM-460 / DLD1
[8] = test system: E2F-1; test: E2F-1 induction in HT-29 cells; type: cell-based, human
Excerpt: Another effect of the compounds of the present invention is the induction or elevation of activity (e.g. elevation of the level) of one or more checkpoint molecules (i.e., a member of the E2F family of transcription factors). Studies have shown that β-lapachone induces activation of E2F1 checkpoint pathway in nuclei of cancer cells but not in normal cells, resulting in the arrest of cancer cells in G1 and/or S phase. Several compounds of the present invention were effective in activating the E2F1 checkpoint pathway (e.g. elevation of E2F1 levels), thus causing G1 and/or S phase arrest. Furthermore, the compounds of the present invention have no significant toxic effects on normal cells (See. Table 1). The assays of the present invention as shown in Table 1 and methods of measuring induction of E2F1 activity and elevation of E2F1 levels can be carried out following the descriptions found in Li et al., (2003) Proc Natl Acad Sci USA. 100(5): 2674-8 and U.S. Patent Application Publication No. 2002/0169135, both incorporated herein by reference.

[9] = test system: HT29 human colon cancer xenograft; test: Colon cancer xenograft model (HT29) in athymic nude mice; type: in vivo
Protocol: Tumors were allowed to grow to approximately 70 mm^3 in size. Animals were randomized into two groups of eight animals per group. […] Drug or vehicle was administered every Monday, Wednesday and Friday for a total of nine doses (qMWFx3). Tumor size was evaluated periodically during the study. For each subject, tumor volume was calculated using the formula (L×W^2)/2 where L and W were the length and width of the tumor, respectively. The arithmetic mean tumor volume was calculated for each treatment group +/− standard error of the mean (SEM). […] Tumors were allowed to grow to approximately 90 mm^3 in size. Animals were randomized into three groups of eight animals per group. […] Drug or vehicle was administered every Monday, Wednesday and Friday for a total of nine doses (qMWFx3). Tumor size was evaluated periodically during the study. For each subject, tumor volume was calculated using the formula (L×W^2)/2 where L and W were the length and width of the tumor, respectively. The arithmetic mean tumor volume was calculated for each treatment group +/− standard error of the mean (SEM). […] Tumors were allowed to grow to approximately 60 mm^3 in size. Animals were randomized into two groups of eight animals per group. At day five post injection, mice with established tumors were treated intraperitoneally with either Compound 182 (40 mg/kg) or vehicle control. Drug or vehicle was administered every Monday, Wednesday and Friday for a total of nine doses (qMWFx3). Tumor size was evaluated periodically during the study. For each subject, tumor volume was calculated using the formula (L×W^2)/2 where L and W were the length and width of the tumor, respectively. The arithmetic mean tumor volume was calculated for each treatment group +/− standard error of the mean (SEM). […] Tumors were allowed to grow to approximately 50 mm^3 in size. Animals were randomized into three groups of five animals per group. At day eight post injection, mice with established tumors were treated intraperitoneally with either Compound 180 (40 mg/kg) or Compound 125 (40 mg/kg) and vehicle control. Drug or vehicle was administered every Monday, Wednesday and Friday for a total of twelve doses (qMWFx4). Tumor size was evaluated periodically during the study. For each subject, tumor volume was calculated using the formula (L×W^2)/2 where L and W were the length and width of the tumor, respectively. The arithmetic mean tumor volume was calculated for each treatment group +/−standard error of the mean (SEM).

[10] = test system: human cancer cell lines; settings: single agent; read-out: antineoplastic activity against human cancer cell lines (IC50); cited from earlier work
[11] = test system: normal fresh or proliferating human PBMC; settings: cited from earlier work
[12] = 40 mg/kg intraperitoneally qMWFx4, HT29 xenograft
[13] = 40 mg/kg intraperitoneally qMWFx3, HT29 xenograft
[14] = 32 mg/kg intraperitoneally qMWFx3, HT29 xenograft
[15] = 48 mg/kg intraperitoneally qMWFx3, HT29 xenograft

Structure (SMILES): O=C1C(=O)c2ccccc2C2=C1SCC1(CCN(Cc3ccc(F)cc3)CC1)O2 [Compound 125, 1′-(4-fluorobenzyl)spiro[naphtho[1,2-b][1,4]oxathiine-2,4′-piperidine]-5,6-dione]
IC50 [1]: 9570 nM
IC50 [2]: 1710 nM
IC50 [3]: 5060 nM
IC50 [4]: 3740 nM
IC50 [5]: 4950 nM
IC50 [6]: 2500 nM
IC50 [7]: 9750 nM
Fold Selectivity (NCM-460/DLD1) [7]: 5.7
E2F-1 Induction (HT-29) [8]: Yes
% T/C [9, 12]: 46.2%
reduction of mean tumor volume compared to vehicle treated control [9, 12]: 57.8%

Structure (SMILES): O=C1C(=O)c2ccccc2C2=C1SCC1(CCN(C[C@H](O)COc3ccc(F)cc3)CC1)O2 [Compound 180, 1′-[(2S)-3-(4-fluorophenoxy)-2-hydroxypropyl]spiro[naphtho[1,2-b][1,4]oxathiine-2,4′-piperidine]-5,6-dione]
IC50 [1]: 3530 nM
IC50 [2]: 708 nM
IC50 [3]: 1480 nM
IC50 [4]: 1460 nM
IC50 [5]: 2200 nM
IC50 [6]: 958 nM
IC50 [7]: 3570 nM
Fold Selectivity (NCM-460/DLD1) [7]: 5.0
E2F-1 Induction (HT-29) [8]: Yes
% T/C [9, 12]: 58.3%
reduction of mean tumor volume compared to vehicle treated control [9, 12]: 41.7%

Structure (SMILES): CC1(C)CCC2=C(O1)c1ccccc1C(=O)C2=O [β-lapachone, 3,4-dihydro-2,2-dimethyl-2H-naphtho[1,2-b]pyran-5,6-dione]
IC50 [10]: 1000 to 10000 nM
cytotoxic effects on normal fresh or proliferating human PBMC [11]: No cytotoxic effects

Further lines, with some results ahead:

IC50 [1]: 6450 nM
IC50 [2]: 1300 nM
IC50 [3]: 1280 nM
IC50 [4]: 3250 nM
IC50 [5]: 2070 nM
IC50 [6]: 1330 nM
Structure (SMILES): O=C1C(=O)c2ccccc2C2=C1SCC1(CCN(C[C@H](O)COc3ccc(Cl)cc3)CC1)O2 [Compound 182, 1′-[(2S)-3-(4-chlorophenoxy)-2-hydroxypropyl]spiro[naphtho[1,2-b][1,4]oxathiine-2,4′-piperidine]-5,6-dione]
IC50 [7]: 11200 nM
Fold Selectivity (NCM-460/DLD1) [7]: 8.6
E2F-1 Induction (HT-29) [8]: Yes
% T/C [9, 13]: 44.8%
reduction of mean tumor volume compared to vehicle treated control [9, 13]: 55.2%

IC50 [1]: 5850 nM
IC50 [2]: 2580 nM
IC50 [3]: 1650 nM
IC50 [4]: 5340 nM
IC50 [5]: 3670 nM
IC50 [6]: 1710 nM
Structure (SMILES): CC(C)(C)c1ccc(OC[C@@H](O)CN2CCC3(CC2)CSC2=C(O3)c3ccccc3C(=O)C2=O)cc1 [Compound 184, 1′-[(2S)-3-(4-tert-butylphenoxy)-2-hydroxypropyl]spiro[naphtho[1,2-b][1,4]oxathiine-2,4′-piperidine]-5,6-dione]
IC50 [7]: 27800 nM
Fold Selectivity (NCM-460/DLD1) [7]: 10.8
E2F-1 Induction (HT-29) [8]: Yes
% T/C [9, 14]: 29.8%
reduction of mean tumor volume compared to vehicle treated control [9, 14]: 70.2%

IC50 [1]: 5500 nM
IC50 [2]: 1500 nM
IC50 [3]: 2100 nM
IC50 [4]: 2300 nM
IC50 [5]: 6500 nM
IC50 [6]: 1500 nM
Structure (SMILES): O=C1C(=O)c2ccccc2C2=C1SCC1(CCN(C[C@H](O)Cc3ccccc3)CC1)O2 [Compound 186, 1′-[(2R)-2-hydroxy-3-phenylpropyl]spiro[naphtho[1,2-b][1,4]oxathiine-2,4′-piperidine]-5,6-dione]
IC50 [7]: 6800 nM
Fold Selectivity (NCM-460/DLD1) [7]: 4.7
E2F-1 Induction (HT-29) [8]: YES
% T/C [9, 14]: 50%
reduction of mean tumor volume compared to vehicle treated control [9, 14]: 50%

IC50 [1]: 5100 nM
IC50 [2]: 2100 nM
IC50 [3]: 3000 nM
IC50 [4]: 2700 nM
IC50 [5]: 5500 nM
IC50 [6]: 1900 nM
Structure (SMILES): O=C1C(=O)c2ccccc2C2=C1SCC1(CCN(C[C@@H](O)Cc3ccccc3)CC1)O2 [Compound 187, 1′-[(2S)-2-hydroxy-3-phenylpropyl]spiro[naphtho[1,2-b][1,4]oxathiine-2,4′-piperidine]-5,6-dione]
IC50 [7]: 8100 nM
E2F-1 Induction (HT-29) [8]: YES
Opt. % T/C [9, 15]: 38%
reduction of mean tumor volume compared to vehicle treated control [9, 15]: 62%
